From ChEMBL document CHEMBL5380794, “Discovery of a Potent and Selective STAT5 PROTAC Degrader with Strong Antitumor Activity In Vivo in Acute Myeloid Leukemia” (J Med Chem, 2023)
Activity calls are given as the source filed them. The calls are words filed in the database; no cut-off is given here.

Key:
[1] = Antiproliferative activity against human SKNO-1 cells assessed as cell growth inhibition measured for 4 days by celltiter-glo assay; settings: SKNO-1, 96 h
[2] = In vivo induction of degradation of STAT5 in human MV4-11 cells xenografted in SCID mouse assessed as reduction in STAT5 phosphorylation at Y694 residue at 150 mg/kg, ip measured at 24 hrs by immunoblotting analysis; type: functional; design: scale not given: the % may be the effect or the level left
[3] = biological target: T1, STAT5A/STAT5B (Homo sapiens, UniProt P42229+P51692); test: Induction of STAT5A/5B degradation in human RS4-11 cells measured for 18 hrs by immunoblotting analysis; type: cell-based
T1 sequence (P42229 whole entry): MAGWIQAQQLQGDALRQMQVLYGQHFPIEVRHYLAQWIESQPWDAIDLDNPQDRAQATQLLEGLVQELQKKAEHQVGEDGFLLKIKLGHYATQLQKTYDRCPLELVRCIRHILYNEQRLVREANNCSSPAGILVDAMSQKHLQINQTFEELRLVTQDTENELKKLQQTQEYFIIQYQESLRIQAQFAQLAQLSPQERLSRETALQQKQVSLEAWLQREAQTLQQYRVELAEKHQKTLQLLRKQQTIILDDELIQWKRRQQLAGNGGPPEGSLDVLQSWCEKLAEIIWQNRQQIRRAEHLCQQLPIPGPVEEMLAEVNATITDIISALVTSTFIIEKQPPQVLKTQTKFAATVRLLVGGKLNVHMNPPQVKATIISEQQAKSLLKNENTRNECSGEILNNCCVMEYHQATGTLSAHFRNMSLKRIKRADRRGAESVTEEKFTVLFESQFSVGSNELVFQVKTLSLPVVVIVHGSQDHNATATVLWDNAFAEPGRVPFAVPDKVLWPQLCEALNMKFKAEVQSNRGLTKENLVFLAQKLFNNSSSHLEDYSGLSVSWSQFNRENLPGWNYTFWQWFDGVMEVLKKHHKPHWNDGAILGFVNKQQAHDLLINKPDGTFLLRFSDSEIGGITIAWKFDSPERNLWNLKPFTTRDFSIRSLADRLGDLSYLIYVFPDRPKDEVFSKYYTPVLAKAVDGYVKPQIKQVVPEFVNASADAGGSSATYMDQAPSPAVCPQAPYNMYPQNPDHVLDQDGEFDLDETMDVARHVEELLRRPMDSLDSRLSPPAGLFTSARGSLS
T1 sequence (P51692 whole entry): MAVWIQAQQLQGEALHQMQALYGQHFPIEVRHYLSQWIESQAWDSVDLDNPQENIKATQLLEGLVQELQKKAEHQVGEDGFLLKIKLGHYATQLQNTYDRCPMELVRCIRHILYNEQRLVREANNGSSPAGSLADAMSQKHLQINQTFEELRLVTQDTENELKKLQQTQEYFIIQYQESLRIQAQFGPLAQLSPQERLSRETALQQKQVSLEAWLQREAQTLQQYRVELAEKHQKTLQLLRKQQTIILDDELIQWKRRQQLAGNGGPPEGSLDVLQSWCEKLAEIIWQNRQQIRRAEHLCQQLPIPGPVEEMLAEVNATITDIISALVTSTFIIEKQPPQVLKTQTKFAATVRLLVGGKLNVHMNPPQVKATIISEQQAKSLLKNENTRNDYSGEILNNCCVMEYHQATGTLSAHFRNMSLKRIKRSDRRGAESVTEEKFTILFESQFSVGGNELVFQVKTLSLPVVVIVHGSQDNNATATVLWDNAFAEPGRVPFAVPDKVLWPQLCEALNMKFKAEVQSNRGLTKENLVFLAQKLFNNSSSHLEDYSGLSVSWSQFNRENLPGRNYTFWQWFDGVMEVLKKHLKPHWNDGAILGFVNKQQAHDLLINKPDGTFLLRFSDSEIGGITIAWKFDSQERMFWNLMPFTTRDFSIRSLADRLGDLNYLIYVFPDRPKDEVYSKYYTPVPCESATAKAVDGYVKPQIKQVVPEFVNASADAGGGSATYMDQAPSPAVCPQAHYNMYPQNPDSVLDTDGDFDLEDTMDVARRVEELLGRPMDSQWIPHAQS

[4] = system: SKNO-1; test: Effect on STAT2 level in human SKNO-1 cells upto 5 uM measured for 18 hrs by Western blot analysis; type: functional, cell-based
[5] = biological target: T2, Signal transducer and activator of transcription 5A (Homo sapiens, UniProt P42229); test: Induction of STAT5 degradation in human MV4-11 cells assessed as reduction in phosphorylated STAT5 level measured for 6 hrs by immunoblotting analysis; type: cell-based
T2 sequence (P42229 whole entry): T1 sequence (P42229 whole entry)

[6] = system: MV4-11; test: Antitumor activity against human MV4-11 cells xenografted in SCID mouse assessed as tumor growth inhibition at 50 mg/kg, ip administered 5 days a week for 3 weeks; type: functional; settings: MV4-11, 504 h, read-out: TGI
[7] = Antiproliferative activity against human Kasumi-3 cells assessed as cell growth inhibition measured for 4 days by celltiter-glo assay; settings: Kasumi-3, 96 h
[8] = system: MV4-11; test: Antitumor activity against human MV4-11 cells xenografted in SCID mouse assessed as tumor growth inhibition at 200 mg/kg, ip administered 5 days a week for 3 weeks; type: functional; settings: MV4-11, 504 h, read-out: TGI
[9] = Antiproliferative activity against human BDCM cells assessed as cell growth inhibition measured for 4 days by celltiter-glo assay; settings: 96 h
[10] = In vivo induction of degradation of STAT5 in human MV4-11 cells xenografted in SCID mouse assessed as reduction in STAT5 levels at 150 mg/kg, ip measured at 24 hrs by immunoblotting analysis; type: functional; design: scale not given: the % may be the effect or the level left
[11] = system: HL-60; test: Antiproliferative activity against human HL-60 cells assessed as cell growth inhibition measured for 4 days by celltiter-glo assay; settings: HL-60, 96 h
[12] = system: MV4-11; test: Antiproliferative activity against human MV4-11 cells assessed as maximal cell growth inhibition measured for 4 days by celltiter-glo assay relative to control; type: functional; settings: time 4 day
[13] = system: MV4-11; test: Effect on STAT1 level in human MV4-11 cells upto 5 uM measured for 18 hrs by Western blot analysis; type: functional, cell-based
[14] = Toxicity in SCID mouse assessed as body weight loss at 50 to 200 mg/kg, ip administered 5 days a week for 3 weeks; type: organism-based; settings: in vivo, 504 h, dose 50-200 mg/kg
[15] = system: RS4-11; test: Antiproliferative activity against human RS4-11 cells assessed as cell growth inhibition measured for 4 days by celltiter-glo assay; settings: RS4-11, 96 h
[16] = biological target: T1, STAT5A/STAT5B; test: Induction of STAT5A/5B degradation in human OCI-AML2 cells measured for 18 hrs by immunoblotting analysis; type: cell-based
[17] = system: OCI-AML2; test: Antiproliferative activity against human OCI-AML2 cells assessed as maximal cell growth inhibition measured for 4 days by celltiter-glo assay relative to control; type: functional; settings: time 4 day
[18] = system: HL-60; test: Antiproliferative activity against human HL-60 cells assessed as maximal cell growth inhibition measured for 4 days by celltiter-glo assay relative to control; type: functional; settings: time 4 day
[19] = system: SKNO-1; test: Effect on STAT3 level in human SKNO-1 cells upto 5 uM measured for 18 hrs by Western blot analysis; type: functional, cell-based
[20] = Half life in SCID mouse at 150 mg/kg, ip; type: ADME, organism-based; settings: in vivo
[21] = biological target: T1, STAT5A/STAT5B; test: Induction of STAT5A/5B degradation in human Kasumi-3 cells measured for 18 hrs by immunoblotting analysis; type: cell-based

DC50 [3]: 70 nM
DC50 [5]: 60 nM
IC50 [11]: > 15000 nM
IC50 [15]: > 15000 nM
DC50 [16]: 280 nM
half-life [20]: 1.9 h
DC50 [21]: 180 nM
SMILES: CN(CCCC#Cc1cccc2c1CN(C1CCC(=O)NC1=O)C2=O)C(=O)CCN(C(=O)[C@@H]1CCCN1C(=O)[C@@H](NC(=O)c1cc2cc(C(F)(F)P(=O)(O)O)ccc2s1)C(C)(C)C)c1ccc(-c2nccs2)cc1 (stereo partly specified)
IC50 [1]: 360 nM
Activity [2]: >70%
Activity [4]: inactive
inhibition in vivo at 50 mg/kg [6]: 50%
IC50 [7]: 350 nM
inhibition in vivo at 200 mg/kg [8]: 80%
IC50 [9]: > 15000 nM
Activity [10]: >70%
Imax [12]: 65%
Activity [13]: inactive
Activity [14]: Non-Toxic
Imax [17]: <5%
Imax [18]: <5%
Activity [19]: inactive
